Experimental data published in publication PMC5607081 (2017).

Test system: target DNA; 23-bp duplex DNA oligo (DNA, duplex) GCGAATAAGAGGAAGTGAAACCG/CGGTTTCACTTCCTCTTATTCGC
Assay: fluorescence polarization titration
Conditions: 0.20 M NaCl; 10 mM TrisHCl, pH 7.5, 25°C, H2O, no osmolyte; apparent

−log (Kd, M): 9.90 ± 0.12 −log M
Compound: N=C(N)c1ccc2[nH]c(-c3ccc(-c4nc5cc(C(=N)N)ccc5[nH]4)[se]3)nc2c1
